In patent US20080085893A1, “MATRIX METALLOPROTEASE INHIBITORS” (priority 2006, published 2008):
“And” between values parts separate entries of the source, which are not always exact repeats. Identical values can stand only once.

Assays:
Type in all cases: biochemical
[1] = target: T1, human MMP-9 (amino acids 107-446) (Homo sapiens, UniProt P14780); assay: MMP dose response assay for determining IC50, MMP-9; conditions: recombinant enzyme, fluorescent-quench substrate 100 nM; read-out: MMP-9
T1 construct: human MMP-9 (amino acids 107-446); made in house
Method in brief: (§1)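 Recombinant enzymes in 50 mM HEPES pH 7.4, 10 mM CaCl2, 0.05% Brij-35, at empirically set levels keeping activity linear, preincubated 1 h at room temperature with compound in triplicate. Fluorescence-quench peptide substrate (Eu/QSY7) added at 100 nM final. Background-subtracted signal expressed as percent of DMSO control for IC50.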

[2] = target: T2, human MMP-3 (amino acids 100-265) (Homo sapiens, UniProt P08254); assay: MMP dose response assay for determining IC50, MMP-3; conditions: recombinant enzyme, fluorescent-quench substrate 100 nM
T2 construct: human MMP-3 (amino acids 100-265); made in house
Protocol: (§2) MMP Dose Response Assay for Determining IC50
(§3) The following method was used for determining IC50 values of different inhibitor compounds against multiple MMP enzymes. Frozen stocks of recombinantly produced MMPs were prepared in assay buffer (50 mM HEPES pH 7.4, 10 mM CaCl2, 0.05% Brij-35). The following domains were used to produce catalytically active version of the indicated MMP enzymes, human MMP-1 (amino acids 100-262), human MMP-2 (amino acids 1-660), human MMP-3 (amino acids 100-265), human MMP-9 (amino acids 107-446), human MMP-13 (amino acids 103-268), and rat MMP-9 (amino acids 108-446). Enzyme concentrations in the assay were determined empirically and set such that proteolytic activity was maintained in a linear range over the time-course of the experiment. Diluted enzymes were mixed with various test compounds that had been pre-diluted into assay buffer to establish concentration curves ranging from 10^−5 M to 10^−12 M. Compounds were diluted into assay buffer that contained an appropriate concentration of DMSO to maintain this at a constant in all wells. Each concentration for each test compound was tested in triplicate. MMP enzymes were equilibrated with compounds for 1 hour at room temperature, then a fluorescent-quench substrate (Acetyl-Cys(Eu)-Pro-Leu-Gly-Leu-Lys-(QSY7)-Ala-Arg-amide) was added to a final concentration of 100 nM. Following a 15 minute room temperature incubation, the assay plate was read on an EnVision plate reader using the following parameters: excitation wavelength 340 nM, emission wavelength 615 nM, number of flashes 100, delay before reading 300 milliseconds. Data was analyzed by first calculating average background value from wells that contained only substrate, and this value was subtracted from the entire plate. The 100%, or maximum value, was determined by averaging control wells that contained enzyme, substrate and DMSO. For each well, the percent of control was calculated by dividing the well value by the average DMSO value obtained above.
(§4) Additionally, compounds 27, 3, 65, 66, and 97 were tested in vitro for MMP-3, MMP-9 (rat), and MMP-13 antagonism.

[3] = target: T3, human MMP-13 (amino acids 103-268) (Homo sapiens, UniProt P45452); assay: MMP dose response assay for determining IC50, MMP-13; conditions: recombinant enzyme, fluorescent-quench substrate 100 nM
T3 construct: human MMP-13 (amino acids 103-268); made in house
Protocol: as §2, §3, §4

[4] = target: T4, human MMP-1 (amino acids 100-262) (Homo sapiens, UniProt P03956); assay: MMP dose response assay for determining IC50, MMP-1; conditions: recombinant catalytic domain, fluorescent-quench substrate 100 nM
T4 construct: human MMP-1 (amino acids 100-262); made in house
T4 sequence (P03956 100-262): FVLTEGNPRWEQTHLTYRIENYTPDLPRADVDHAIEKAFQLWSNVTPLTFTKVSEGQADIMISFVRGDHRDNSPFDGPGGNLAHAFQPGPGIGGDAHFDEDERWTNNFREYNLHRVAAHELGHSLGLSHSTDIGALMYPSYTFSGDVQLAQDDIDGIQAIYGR
Method in brief: as §1

[5] = target: T5, human MMP-2 (amino acids 1-660) (Homo sapiens, UniProt P08253); assay: MMP dose response assay for determining IC50, MMP-2; conditions: recombinant enzyme, fluorescent-quench substrate 100 nM; read-out: MMP-2
T5 construct: human MMP-2 (amino acids 1-660); made in house
T5 sequence (P08253 110-660): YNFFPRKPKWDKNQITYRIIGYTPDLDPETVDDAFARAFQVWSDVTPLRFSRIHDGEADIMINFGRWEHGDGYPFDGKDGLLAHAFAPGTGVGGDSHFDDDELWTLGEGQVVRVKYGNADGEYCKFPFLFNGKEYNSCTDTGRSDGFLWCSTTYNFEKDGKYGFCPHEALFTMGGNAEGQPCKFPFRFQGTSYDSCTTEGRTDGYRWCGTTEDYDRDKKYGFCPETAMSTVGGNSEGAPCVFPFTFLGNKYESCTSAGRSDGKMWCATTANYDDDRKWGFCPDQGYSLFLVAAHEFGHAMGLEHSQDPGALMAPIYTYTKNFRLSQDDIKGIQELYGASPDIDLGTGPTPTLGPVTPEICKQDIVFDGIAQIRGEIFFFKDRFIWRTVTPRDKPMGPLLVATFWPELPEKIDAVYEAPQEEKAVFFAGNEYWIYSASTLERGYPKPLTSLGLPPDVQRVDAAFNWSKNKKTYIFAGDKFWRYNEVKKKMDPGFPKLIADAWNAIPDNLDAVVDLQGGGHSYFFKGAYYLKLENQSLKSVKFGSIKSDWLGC
Method in brief: as §1

[6] = target: T6, rat MMP-9 (amino acids 108-446) (Rattus norvegicus, UniProt P50282); assay: MMP dose response assay for determining IC50, rat MMP-9; conditions: rat enzyme
T6 construct: rat MMP-9 (amino acids 108-446); made in house
Protocol: as §2
as §3, with “Diluted enzymes were mixed with various test compounds that had been pre-diluted into assay buffer to establish concentration curves ranging from 10^−5 M to 10^−12 M. Compounds were diluted into assay buffer that contained an appropriate concentration of DMSO to maintain this at a constant in all wells. Each concentration for each test compound was tested in triplicate. MMP enzymes were equilibrated with compounds for 1 hour at room temperature, then a fluorescent-quench substrate (Acetyl-Cys(Eu)-Pro-Leu-Gly-Leu-Lys-(QSY7)-Ala-Arg-amide) was added to a final concentration of 100 nM.” left out, “For each well, the percent of control was calculated by dividing the well value by the average DMSO value obtained above.” left out

T1 sequence (P14780 107-446): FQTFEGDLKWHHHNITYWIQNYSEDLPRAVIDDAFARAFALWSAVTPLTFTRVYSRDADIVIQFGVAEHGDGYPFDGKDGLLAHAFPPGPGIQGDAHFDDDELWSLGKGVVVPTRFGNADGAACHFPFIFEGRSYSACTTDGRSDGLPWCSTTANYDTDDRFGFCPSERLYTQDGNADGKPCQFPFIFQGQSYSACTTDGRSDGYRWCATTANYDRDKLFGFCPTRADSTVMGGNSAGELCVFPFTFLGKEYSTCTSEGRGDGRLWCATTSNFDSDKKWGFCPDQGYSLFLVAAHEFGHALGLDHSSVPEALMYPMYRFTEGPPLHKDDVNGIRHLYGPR
T2 sequence (P08254 100-265): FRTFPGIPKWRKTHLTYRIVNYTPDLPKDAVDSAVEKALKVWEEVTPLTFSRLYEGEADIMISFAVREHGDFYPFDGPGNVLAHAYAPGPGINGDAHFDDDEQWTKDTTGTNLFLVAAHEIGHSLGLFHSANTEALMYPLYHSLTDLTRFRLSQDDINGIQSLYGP
T6 sequence (P50282 108-446): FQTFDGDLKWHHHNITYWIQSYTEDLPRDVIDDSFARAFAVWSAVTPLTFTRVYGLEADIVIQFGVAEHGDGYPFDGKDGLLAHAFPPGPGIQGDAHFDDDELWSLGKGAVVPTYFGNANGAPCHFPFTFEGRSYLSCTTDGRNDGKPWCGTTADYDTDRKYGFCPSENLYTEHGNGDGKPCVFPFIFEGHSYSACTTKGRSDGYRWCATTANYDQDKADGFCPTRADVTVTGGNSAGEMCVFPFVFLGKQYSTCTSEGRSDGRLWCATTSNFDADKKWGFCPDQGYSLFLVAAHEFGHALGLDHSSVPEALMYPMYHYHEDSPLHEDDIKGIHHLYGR

| Compound | IC50 [1] | IC50 [2] | IC50 [3] | IC50 [4] | IC50 [5] | IC50 [6] |
| --- | --- | --- | --- | --- | --- | --- |
| CS(=O)(=O)N(C[C@@H](C(=O)NO)N1CCOCC1)c1ccc(Oc2ccc(C(F)(F)F)cc2)cc1 [Example 3, N-Hydroxy (2S)-2-(morpholin-4-yl)-3-{N-[4-(4-trifluoromethylphenoxy)phenyl],N-methanesulfonylamino}propionamide] | 4.06 nM and 3.53 nM and 2.37 nM and 2.76 nM and 7.64 nM and 2.89 nM and 2.08 nM and 2.79 nM and 18.4 nM and 7.46 nM | 63.7 nM and 105 nM | 30.5 nM and 56.1 nM |  |  |  |
| Cc1ccc(Oc2ccc(N(C[C@@H](C(=O)NO)N3CCOCC3)S(C)(=O)=O)cc2)cc1 [Example 27, N-Hydroxy (2S)-3-{N-[4-(4-methylphenoxy)phenyl],N-methanesulfonylamino}-2-(morpholin-4-yl)propionamide] | 1.52 nM and 2.56 nM and 0.93 nM and 4.05 nM and 2.49 nM | 136 nM | 3.53 nM | > 10000 nM | 3.21 nM and 4.98 nM and 4.19 nM and 10.7 nM and 8.28 nM | 25.8 nM |
| Cc1ccc(Oc2ccc(N(C[C@@H](C(=O)NO)N3CCC(O)(c4ccc(Br)cc4)CC3)S(C)(=O)=O)cc2)cc1 [Example 65, N-Hydroxy (2S)-2-[4-(4-bromophenyl)-4-hydroxypiperidin-1-yl]-3-{N-[4-(4-methylphenoxy)phenyl],N-methanesulfonylamino}propionamide] | 0.65 nM | 492 nM | 411 nM | > 10000 nM | 0.37 nM |  |
| Cc1ccc(Oc2ccc(N(C[C@H](NCCc3c[nH]c4ccccc34)C(=O)NO)S(C)(=O)=O)cc2)cc1 [Example 66] | 2.88 nM | 822 nM | 847 nM | > 10000 nM | 41.2 nM |  |

More lines, now with the values ahead:

| IC50 [1] | IC50 [2] | IC50 [3] | IC50 [4] | IC50 [5] | IC50 [6] | Compound |
| --- | --- | --- | --- | --- | --- | --- |
| 1.94 nM and 4.5 nM |  |  | > 10000 nM | 6.21 nM and 13.5 nM |  | CS(=O)(=O)N1CCN([C@@H](CN(c2ccc(Oc3ccc(C(F)(F)F)cc3)cc2)S(C)(=O)=O)C(=O)NO)CC1 [Example 83, N-Hydroxy (2S)-2-(4-methanesulfonylpiperazin-1-yl)-3-{N-[4-(4-trifluoromethylphenoxy)phenyl],N-methanesulfonylamino}propionamide] |
| 4.81 nM |  |  | > 10000 nM | 8.55 nM |  | CC(=O)N1CCN([C@@H](CN(c2ccc(Oc3ccc(C(F)(F)F)cc3)cc2)S(C)(=O)=O)C(=O)NO)CC1 [Example 84, N-Hydroxy (2S)-2-(4-acetylpiperazin-1-yl)-3-{N-[4-(4-trifluoromethylphenoxy)phenyl],N-methanesulfonylamino}propionamide] |
| 0.48 nM and 0.86 nM and 2.08 nM and 2.71 nM and 0.35 nM |  |  | 8040 nM | 2.69 nM and 4.57 nM and 9.44 nM and 8.32 nM and 3.04 nM |  | C[C@@H]1CN([C@@H](CN(c2ccc(Oc3ccc(C(F)(F)F)cc3)cc2)S(C)(=O)=O)C(=O)NO)C[C@H](C)O1 [Example 86, N-Hydroxy (2S)-2-(cis-2,6-dimethylmorpholin-4-yl)-3-{N-[4-(4-trifluoromethylphenoxy)phenyl],N-methanesulfonylamino}propionamide] |
| 7.94 nM |  |  | > 10000 nM | 19.8 nM |  | CS(=O)(=O)N(C[C@@H](C(=O)NO)N1CCNC(=O)C1)c1ccc(Oc2ccc(C(F)(F)F)cc2)cc1 [Example 87, N-Hydroxy (2S)-2-(3-oxopiperazin-1-yl)-3-{N-[4-(4-trifluoromethylphenoxy)phenyl],N-methanesulfonylamino}propionamide] |
| 5.48 nM and 12.2 nM | 218 nM | 12.4 nM |  | 17.4 nM and 29.9 nM | 175 nM | CC(C)N(C)[C@@H](CN(c1ccc(Oc2ccc(C(F)(F)F)cc2)cc1)S(C)(=O)=O)C(=O)NO [Example 97, N-Hydroxy (2S)-2-[N-methyl,N-(2-prolyl)amino]-3-{N-[4-(4-trifluoromethylphenoxy)phenyl],N-methanesulfonylamino}propionamide] |
